Measured values reported in article PMC7529893, “Structural basis for substrate recognition and chemical inhibition of oncogenic MAGE ubiquitin ligases” (Nature Communications, 2020).

Biological target: T1, MAGE-A11:PCF11 interaction (GST-MAGE-A11 and FAM-PCF11_4) (Homo sapiens, UniProt P43364)
T1 construct: GST-MAGE-A11 MHD (human MAGE-A11 MHD amino acid 218-429); made in house; host or cells: E. coli BL21(DE3)
T1 sequence (P43364 218-429): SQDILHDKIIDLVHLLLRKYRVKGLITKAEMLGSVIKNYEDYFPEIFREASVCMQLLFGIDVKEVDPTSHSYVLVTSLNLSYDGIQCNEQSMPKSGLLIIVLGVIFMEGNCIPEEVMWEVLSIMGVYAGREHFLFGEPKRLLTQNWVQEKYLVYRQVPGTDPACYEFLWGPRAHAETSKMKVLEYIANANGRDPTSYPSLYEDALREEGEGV
Experiment: TR-FRET primary / single point screen at 15 µM
Type: binding
Procedure: The TR-FRET assay buffer with a formula of 50 mM Tris pH 7.5, 20 mM MgCl2, 0.1 mg/ml BSA and 1 mM DTT was freshly prepared before each experiment. All TR-FRET assays were performed in black 384-well plates with 20 µl/well assay volume in the TR-FRET assay buffer at room temperature (~25 °C). All peptides or compounds were solubilized in DMSO. To test the competitive activity of peptides or compounds against the interaction between GST-MAGE-A11 MHD and FAM-PCF11_4 peptide, 10 µl/well peptide or compound at specified concentration was dispensed into a black 384-well low volume plate, followed by 5 µl/well FAM-PCF11_4 (800 nM), 5 µl/well Tb-anti-GST (20 nM), and GST-MAGE-A11 MHD (20 nM). The assay components in each well was then mixed by shaking the plate on an IKA MTS 2/4 digital microtiter plate shaker (IKA Works; Wilmington, NC, USA) for 1 min. The plate was further centrifuged in an Eppendorf 5810 centrifuge with an A-4-62 swing-bucket rotor (Eppendorf AG, Hamburg, Germany) at 201 g for 30 s. The plate was then incubated for 90 min with a lid to avoid light exposure to the assay components. After incubation, the fluorescent emission signals at 520 nm and 490 nm channels of individual wells were measured with a PHERAstar FS plate reader (BMG Labtech; Durham, NC, USA) by using a 340 nm excitation filter, 100 µs delay time, and 200 µs integration time. The TR-FRET fluorescence emission ratio (TR-FRET signal) for each well was presented as 10,000 × 520 nm/490 nm, which was used directly for curve fitting, or further converted to %Inhibition based on the respective positive and negative controls. The graphic software GraphPad Prism 4.81 (GraphPad Software; La Jolla, CA, USA) was used to generate curves and derive IC50 values of tested peptides or compounds, if applicable. TR-FRET screen for identifying MAGE-A11 small molecule inhibitors was performed as follows. The primary one-concentration screening and subsequent 10 or 20-concentration dose-response tests were accomplished with an automated High Throughput Screening system (HighRes Biosolutions, Beverly, MA)[30]. In the primary screening, 15 µl/well FAM-PCF11_4 (267 nM) was first dispensed with a Multidrop Combi Reagent Dispenser (Thermo Fisher Scientific, Waltham, MA) to black 384-well low-volume assay plates. The plates were spun down with a Velocity11 VSpin microplate centrifuge (Agilent Technologies, Santa Clara, CA). In total, 30 nl/well of 10 mM compound/DMSO solutions, or DMSO alone, were transferred from compound plates (the St. Jude FDA drug and bioactive library, Drug-like library and Lead-like library) or a control plate to the assay plates with a Pin Tool (V&P Scientific, San Diego, CA). The compounds were arrayed in columns 3–12 and columns 15–24 of compound plates. The controls were arrayed in columns 1, 2, 13, and 14 of a compound plate. In all, 5 µl/well Tb-anti-GST (20 nM) and GST-MAGE-A11 (20 nM) or 5 µl/well Tb-anti-GST (20 nM) alone was then dispensed to selected wells with a Multidrop Combi Reagent Dispenser. The final assay volume was 20 µl/well. […] The final tested compound concentration was 15 µM. The final FAM-PCF11_4 concentration was 200 nM and the final Tb-anti-GST concentration was 5 nM. The final GST-MAGE-A11 concentration was 5 nM except for those selected positive control wells in which GST-MAGE-A11 was not presented. The plates were then shaken with a big bear shaker (Big Bear Automation, Santa Clara, California) and spun down with the Velocity11 VSpin microplate centrifuge for 20 s. The plates were then incubated at room temperature in a Liconic incubator (Liconic US, Woburn, MA) for 90 min. The TR-FRET signals for individual wells were measured with a PHERAstar FS plate reader. The %Inhibition of each tested inhibitor was calculated by using Eq. 1. Those inhibitors with %Inhibition >30% in the primary screening were selected for further dose-response test, along with additional newly synthesized compounds. […]

[1] = single point TR-FRET screening of quinoline compounds against MAGE-A11:PCF11, 15 µM
[2] = single point TR-FRET screening of 797 quinoline compounds against MAGE-A11:PCF11

Structure (SMILES) | percent inhibition (TR-FRET) [1] | percent inhibition (TR-FRET) [2]
Clc1ccc2c(NCCCNCc3ccco3)ccnc2c1 [SJ000000502] | 6.349 | –
CN(C)CCNc1c2c(nc3ccccc13)CCC2 [SJ000013622] | – | 3.285
O=C(O)CCCNC(=O)CNc1c2ccccc2nc2ccccc12 [SJ000016432] | – | 9.598
CC(Nc1c2ccccc2nc2ccccc12)C(=O)NC(CC(N)=O)C(=O)O (centres unmarked) [SJ000016433] | – | 22.7145
CCOC(=O)c1cnc2c(ccc3ccccc32)c1NCCN(C)C [SJ000019487] | – | 6.418
CCN(CC)CC(=O)Nc1c2c(nc3ccccc13)CCCC2 [SJ000019523] | – | 2.741
CCOC(=O)c1cnc2c(C)cc(Cl)cc2c1NCCN(C)C [SJ000027210] | – | 3.834
CCOC(=O)c1cnc2c(Cl)c(Cl)ccc2c1NCCN(C)C [SJ000027266] | – | 2.575
CCOC(=O)c1cnc2ccc(C)cc2c1NCCN1CCOCC1 [SJ000027268] | – | -0.3915
CCOC(=O)c1cnc2ccc(OCC)cc2c1NCCN(C)C [SJ000027288] | – | 10.6575
CCOC(=O)c1cnc2ccc(OCC)cc2c1NCCN1CCOCC1 [SJ000027289] | – | 5.291
CN(C)CCCNc1c2c(nc3ccccc13)CCC2 [SJ000029259] | 24.0531 | –
CCOC(=O)c1cnc2ccc(Br)cc2c1NCCN1CCOCC1 [SJ000031339] | – | -47.2425
CCOC(=O)c1ccc2ncc(C(=O)OCC)c(NCCN3CCOCC3)c2c1 [SJ000031347] | – | 0.6542
CCOC(=O)c1cnc2c(C)c(Cl)ccc2c1NCCN(C)C [SJ000037393] | – | -1.333
CCOC(=O)c1cnc2c(C)cc(C)cc2c1NCCN(C)C [SJ000037396] | – | 4.92
CCOC(=O)c1cnc2c(C)cc(C)cc2c1NCCCN(C)C [SJ000037397] | 14.9289 | –
CN(C)CCCNc1c2ccccc2nc2ccccc12 [SJ000044378] | 16.7674 | –
NC(=O)CC(Nc1c2ccccc2nc2ccccc12)C(=O)O (centres unmarked) [SJ000044383] | 20.1038 | –
CCc1nc2ccccc2c(NC(=O)CNC(C)(C)CC(C)(C)C)c1C [SJ000049110] | – | -0.6045
CCN(CC)CC(=O)Nc1c2c(nc3ccccc13)CCC2 [SJ000049655] | – | 0.6542
Cc1ccc2ncc(S(=O)(=O)c3ccccc3)c(N3CCN(C)CC3)c2c1 [SJ000083945] | – | -8.419
CCc1ccc2ncc(S(=O)(=O)c3ccccc3)c(N3CCN(C)CC3)c2c1 [SJ000083946] | – | -6.249
COc1ccc2ncc(S(=O)(=O)c3ccccc3)c(N3CCN(C)CC3)c2c1 [SJ000083947] | – | -2.0938
CCOc1ccc2ncc(S(=O)(=O)c3ccccc3)c(N3CCN(C)CC3)c2c1 [SJ000083948] | – | -3.938
CN1CCN(c2c(S(=O)(=O)c3ccccc3)cnc3ccc(F)cc23)CC1 [SJ000083949] | – | -11.5001
CN1CCN(c2c(S(=O)(=O)c3ccccc3)cnc3ccc(Cl)cc23)CC1 [SJ000083950] | – | -5.3743

Structure (SMILES) | percent inhibition (TR-FRET) [1] | percent inhibition (TR-FRET) [2]
COc1cc2ncc(S(=O)(=O)c3ccc(C)cc3)c(N3CCN(C)CC3)c2cc1OC [SJ000083951] | – | 1.3128
COc1ccc2ncc(S(=O)(=O)c3ccc(Cl)cc3)c(N3CCN(C)CC3)c2c1 [SJ000083952] | – | -3.658
COc1cc2ncc(S(=O)(=O)c3ccc(Cl)cc3)c(N3CCN(C)CC3)c2cc1OC [SJ000083953] | – | 4.674
CCc1ccc2ncc(S(=O)(=O)c3ccc(OC)cc3)c(N3CCN(C)CC3)c2c1 [SJ000083954] | – | -5.969
COc1ccc(S(=O)(=O)c2cnc3cc(OC)c(OC)cc3c2N2CCN(C)CC2)cc1 [SJ000083955] | – | 0.8227
CCN1CCN(c2c(S(=O)(=O)c3ccccc3)cnc3ccc(C)cc23)CC1 [SJ000083956] | – | -3.448
CCc1ccc2ncc(S(=O)(=O)c3ccccc3)c(N3CCN(CC)CC3)c2c1 [SJ000083957] | – | 3.238
CCN1CCN(c2c(S(=O)(=O)c3ccccc3)cnc3ccc(OC)cc23)CC1 [SJ000083958] | – | 0.1242
CCOc1ccc2ncc(S(=O)(=O)c3ccccc3)c(N3CCN(CC)CC3)c2c1 [SJ000083959] | – | 4.534
CCN1CCN(c2c(S(=O)(=O)c3ccccc3)cnc3ccc(Cl)cc23)CC1 [SJ000083960] | – | 4.43
CCN1CCN(c2c(S(=O)(=O)c3ccc(C)cc3)cnc3ccc(C)cc23)CC1 [SJ000083961] | – | 0.2213
CCc1ccc2ncc(S(=O)(=O)c3ccc(C)cc3)c(N3CCN(CC)CC3)c2c1 [SJ000083962] | – | 2.377
CCN1CCN(c2c(S(=O)(=O)c3ccc(C)cc3)cnc3ccc(OC)cc23)CC1 [SJ000083963] | – | -3.917
CCOc1ccc2ncc(S(=O)(=O)c3ccc(C)cc3)c(N3CCN(CC)CC3)c2c1 [SJ000083964] | – | -5.899
CCN1CCN(c2c(S(=O)(=O)c3ccc(C)cc3)cnc3cc(OC)c(OC)cc23)CC1 [SJ000083965] | – | 7.146
CCN1CCN(c2c(S(=O)(=O)c3ccc(C)cc3)cnc3ccc(Cl)cc23)CC1 [SJ000083966] | – | -4.358
CCN1CCN(c2c(S(=O)(=O)c3ccc(Cl)cc3)cnc3ccc(C)cc23)CC1 [SJ000083967] | – | -3.0982
CCc1ccc2ncc(S(=O)(=O)c3ccc(Cl)cc3)c(N3CCN(CC)CC3)c2c1 [SJ000083968] | – | -19.1318
CCOc1ccc2ncc(S(=O)(=O)c3ccc(Cl)cc3)c(N3CCN(CC)CC3)c2c1 [SJ000083969] | – | -4.989
CCN1CCN(c2c(S(=O)(=O)c3ccc(Cl)cc3)cnc3cc(OC)c(OC)cc23)CC1 [SJ000083970] | – | -6.809
CCOc1ccc2ncc(S(=O)(=O)c3ccc(OC)cc3)c(N3CCN(CC)CC3)c2c1 [SJ000083971] | – | -6.389
CCN1CCN(c2c(S(=O)(=O)c3ccc(OC)cc3)cnc3cc(OC)c(OC)cc23)CC1 [SJ000083972] | – | 7.411
Cc1ccc2ncc(S(=O)(=O)c3ccccc3)c(N3CCN(c4ccccc4)CC3)c2c1 [SJ000083973] | – | -29.7042
COc1ccc2ncc(S(=O)(=O)c3ccccc3)c(N3CCN(c4ccccc4)CC3)c2c1 [SJ000083974] | – | -132.977
CCOc1ccc2ncc(S(=O)(=O)c3ccccc3)c(N3CCN(c4ccccc4)CC3)c2c1 [SJ000083975] | – | -12.0602
O=S(=O)(c1ccccc1)c1cnc2ccc(F)cc2c1N1CCN(c2ccccc2)CC1 [SJ000083976] | – | -31.1045
